Results taken from ChEMBL document CHEMBL1201862, “PubChem BioAssay data set” (2004).
Several values for one entry are separate records, joined by “and”; a condition that tells them apart may be missing. Equal entries are not always repeated.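 The compound was tested at five concentrations on cells cultured in 96-well plates, with a 48-hour exposure period. Abbreviation: GI50, concentration required for 50% inhibition of growth.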 Activity calls are given as the source filed them. Rule as the data show it: active = GI50 up to about 1.1 µM and inactive = higher.

Columns and labels:
Assay in all cases: inhibition of tumour cell growth, NCI panel, 48 h
MDA-MB-435 = tested on: MDA-MB-435
NCI-H226 = tested on: NCI-H226
SNB-75 = tested on: SNB-75
NCI-H522 = tested on: NCI-H522
ACHN = tested on: ACHN
Malme-3M = tested on: Malme-3M
SK-OV-3 = tested on: SK-OV-3
A498 = tested on: A498
HOP-92 = tested on: HOP-92
MDA-MB-231 = tested on: MDA-MB-231
CAKI-1 = tested on: CAKI-1
OVCAR-3 = tested on: OVCAR-3
HCT-15 = tested on: HCT-15
RXF 393 = tested on: RXF 393
OVCAR-4 = tested on: OVCAR-4
SNB-19 = tested on: SNB-19
UACC-257 = tested on: UACC-257
COLO 205 = tested on: COLO 205
M14 = tested on: M14
DLD-1 = tested on: DLD-1

Row | Compound | GI50 (MDA-MB-435) | GI50 (NCI-H226) | GI50 (SNB-75) | GI50 (NCI-H522) | GI50 (ACHN) | GI50 (Malme-3M) | GI50 (SK-OV-3) | GI50 (A498) | GI50 (HOP-92) | GI50 (MDA-MB-231) | GI50 (CAKI-1) | GI50 (OVCAR-3) | GI50 (HCT-15) | GI50 (RXF 393) | GI50 (OVCAR-4) | GI50 (SNB-19) | GI50 (UACC-257) | GI50 (COLO 205) | GI50 (M14) | GI50 (DLD-1)
1 | CC1=C(Nc2c(C)cc(O)cc2O)C(=O)C=c2oc3c(c21)C(C)=C(Nc1c(C)cc(O)cc1O)C(=O)C=3 | 15.9 µM (inactive) | 43.9 µM (inactive) | 25.6 µM (inactive) | 20.1 µM (inactive) | > 100 µM (inactive) | 21.9 µM (inactive) | 45.7 µM (inactive) | > 100 µM (inactive) | > 100 µM (inactive) | 36.6 µM (inactive) | > 100 µM (inactive) | 15.6 µM (inactive) | 46.6 µM | > 100 µM (inactive) | 57.4 µM (inactive) | 35.8 µM (inactive) | 29.8 µM (inactive) | 20.8 µM (inactive) | 28.8 µM (inactive) | –
2 | CCCN(CCC)c1c([N+](=O)[O-])cc(C(=O)N(CCO)CCO)cc1[N+](=O)[O-] | – | > 100 µM (inactive) | > 100 µM (inactive) | > 100 µM (inactive) | > 100 µM (inactive) | > 100 µM (inactive) | > 100 µM (inactive) | – | – | – | > 100 µM (inactive) | > 100 µM (inactive) | > 100 µM | – | > 100 µM (inactive) | – | > 100 µM (inactive) | > 100 µM (inactive) | > 100 µM (inactive) | > 100 µM (inactive)
3 | C[N+](C)(C)CC(=O)N/N=C(/C(=O)Nc1ccc(Br)cc1)C1C(=O)NC(=O)NC1=O | – | > 100 µM (inactive) | > 100 µM (inactive) | > 100 µM (inactive) | > 100 µM (inactive) | > 100 µM (inactive) | > 100 µM (inactive) | > 100 µM (inactive) | – | – | > 100 µM (inactive) | > 100 µM (inactive) | > 100 µM | > 100 µM (inactive) | > 100 µM (inactive) | > 100 µM (inactive) | > 100 µM (inactive) | > 100 µM (inactive) | > 100 µM (inactive) | > 100 µM (inactive)
4 | O=C(Cc1ccc(F)cc1)NC1=C(Cl)C(=O)c2ccccc2C1=O | – | 3.4 µM (inactive) | 2.5 µM (inactive) | 0.297 µM (active) | 1.47 µM (inactive) | 2.77 µM (inactive) | 4.94 µM (inactive) | – | 1.69 µM (inactive) | – | 4.95 µM (inactive) | 2.75 µM (inactive) | 1.31 µM | 1.05 µM (active) | 2.06 µM (inactive) | 5.58 µM (inactive) | 2.48 µM (inactive) | 3.66 µM (inactive) | 3.16 µM (inactive) | 2.18 µM (inactive)
5 | Cc1cc(C)c([O-])c(-[n+]2c(-c3ccccc3)cc(-c3ccccc3)cc2-c2ccccc2)c1 | – | 10.1 µM (inactive) | 6.18 µM (inactive) | – | 5.13 µM (inactive) | 4.28 µM (inactive) | 13.7 µM (inactive) | – | 1.73 µM (inactive) | – | 9.27 µM (inactive) | 3.67 µM (inactive) | 11.9 µM | 6.73 µM (inactive) | 4.28 µM (inactive) | 8.89 µM (inactive) | 2.94 µM (inactive) | 3.22 µM (inactive) | 5.57 µM (inactive) | 5.19 µM (inactive)
6 | Cc1cc(C)c(-n2c(-c3ccccc3)cs/c2=N\N=C2C=C(C(C)(C)C)C(=O)C(C(C)(C)C)=C2)c(C)c1 | – | > 100 µM (inactive) | 21.3 µM (inactive) | 85.1 µM (inactive) | 90.2 µM (inactive) | > 100 µM (inactive) | > 100 µM (inactive) | – | 39 µM (inactive) | – | > 100 µM (inactive) | > 100 µM (inactive) | > 100 µM | > 100 µM (inactive) | > 100 µM (inactive) | > 100 µM (inactive) | > 100 µM (inactive) | > 100 µM (inactive) | > 100 µM (inactive) | > 100 µM (inactive)
7 | CC(=N\c1ccncc1)/C(C)=N/c1ccncc1 | 29.2 µM (inactive) | 34 µM (inactive) | > 100 µM (inactive) | 16.3 µM (inactive) | 14.5 µM (inactive) | 17.6 µM (inactive) | > 100 µM (inactive) | 34.4 µM (inactive) | 22.3 µM (inactive) | 21.8 µM (inactive) | 16.8 µM (inactive) | 15.4 µM (inactive) | 14.4 µM | 27.4 µM (inactive) | 11.4 µM (inactive) | 27.5 µM (inactive) | 36.3 µM (inactive) | 17 µM (inactive) | 18.7 µM (inactive) | –
8 | COc1cc(C)cc2c1C(=O)C(Br)=CC2=O | 2.29 µM (inactive) | 17.4 µM (inactive) | 16.9 µM (inactive) | 2.03 µM (inactive) | 2.52 µM (inactive) | 2.1 µM (inactive) | 19.6 µM (inactive) | 20.1 µM (inactive) | 3.09 µM (inactive) | 14.7 µM (inactive) | 1.63 µM (inactive) | 4.82 µM (inactive) | 17.4 µM | 3.31 µM (inactive) | 2.75 µM (inactive) | 16.3 µM (inactive) | 13.7 µM (inactive) | 1.72 µM (inactive) | 3.3 µM (inactive) | –
9 | O=c1c2ncn(COCCCl)c2n(-c2ccccc2)c(=S)n1-c1ccccc1 | > 100 µM (inactive) | > 100 µM (inactive) | 4.7 µM (inactive) | > 100 µM (inactive) | > 100 µM (inactive) | > 100 µM (inactive) | > 100 µM (inactive) | > 100 µM (inactive) | > 100 µM (inactive) | > 100 µM (inactive) | > 100 µM (inactive) | > 100 µM (inactive) | > 100 µM | > 100 µM (inactive) | > 100 µM (inactive) | > 100 µM (inactive) | > 100 µM (inactive) | > 100 µM (inactive) | > 100 µM (inactive) | –
10 | O=C(CC(=O)n1nc(-c2ccccc2)c(/N=N/c2ccc([N+](=O)[O-])cc2)c1-c1ccccc1)Nc1ccc(Cl)cc1 | – | 22.4 µM (inactive) | 29 µM (inactive) | 23.2 µM (inactive) | 2.07 µM (inactive) | 19 µM (inactive) | 18.8 µM (inactive) | – | 16.8 µM (inactive) | – | 20 µM (inactive) | 16 µM (inactive) | – | 19.5 µM (inactive) | 34.2 µM (inactive) | 26.4 µM (inactive) | 34.8 µM (inactive) | 18 µM (inactive) | 13.5 µM (inactive) | 22 µM (inactive)
11 | O=C1[C@@H]2C3c4ccccc4C([C@@H]2C(=O)N1c1ccccc1)S3(=O)=O | – | > 100 µM (inactive) | 65.3 µM (inactive) | 74.3 µM (inactive) | > 100 µM (inactive) | > 100 µM (inactive) | > 100 µM (inactive) | – | > 100 µM (inactive) | – | – | > 100 µM (inactive) | > 100 µM | 38.1 µM (inactive) | – | 48.8 µM (inactive) | > 100 µM (inactive) | > 100 µM (inactive) | > 100 µM (inactive) | > 100 µM (inactive)
12 | c1ccc(COC2NCCN2Cc2ccccc2)cc1 (centres undefined) | > 100 µM (inactive) | > 100 µM (inactive) | 97.7 µM (inactive) | > 100 µM (inactive) | > 100 µM (inactive) | > 100 µM (inactive) | > 100 µM (inactive) | 41.7 µM (inactive) | > 100 µM (inactive) | > 100 µM (inactive) | > 100 µM (inactive) | > 100 µM (inactive) | > 100 µM | > 100 µM (inactive) | > 100 µM (inactive) | > 100 µM (inactive) | 61 µM (inactive) | > 100 µM (inactive) | > 100 µM (inactive) | –
13 | CCOC(=O)c1ccc(/N=C/c2ccc(N(CCC#N)S(=O)(=O)c3ccccc3)cc2C)cc1 | – | – | 32.4 µM (inactive) | 72.1 µM (inactive) | – | 53.8 µM (inactive) | 76.9 µM (inactive) | > 100 µM (inactive) | – | – | 39.4 µM (inactive) | 54.7 µM (inactive) | 6.82 µM | – | 39.4 µM (inactive) | > 100 µM (inactive) | 50 µM (inactive) | 20.4 µM (inactive) | 25.4 µM (inactive) | 25.1 µM (inactive)
14 | Cc1cc(C)c(C(=O)C(C)C(c2ccccc2)c2ccc(Cl)cc2)c(C)c1 (centres undefined) | – | > 100 µM (inactive) | > 100 µM (inactive) | – | > 100 µM (inactive) and 91.8 µM (inactive) | – | > 100 µM (inactive) | – | – | – | > 100 µM (inactive) | > 100 µM (inactive) | > 100 µM and 51.5 µM | > 100 µM (inactive) and 77.6 µM (inactive) | 49.4 µM (inactive) and 67.6 µM (inactive) | – | 44.2 µM (inactive) and 38.5 µM (inactive) | > 100 µM (inactive) | 82.8 µM (inactive) and 75.7 µM (inactive) | > 100 µM (inactive)
15 | C=C1C(=O)OC2C1C(OC(=O)/C(=C/C)COC(C)=O)CC1(CO1)C1C(OC(=O)/C(=C/C)CO)C=C(C)C21 (centres undefined) | – | 1.65 µM (inactive) | 2.26 µM (inactive) | – | 1.9 µM (inactive) | 1.78 µM (inactive) | 17.1 µM (inactive) | 3.03 µM (inactive) | – | – | 0.502 µM (active) | 1.14 µM (inactive) | 1.59 µM | 0.394 µM (active) | 2.86 µM (inactive) | 3.36 µM (inactive) | 2.04 µM (inactive) | 1.09 µM (active) | 1.67 µM (inactive) | 1.34 µM (inactive)
16 | Cc1cc(N(C)C)c2ccccc2[n+]1CCCCCCCCCC[n+]1c(C)cc(N(C)C)c2ccccc21.[O-][Cl+3]([O-])([O-])[O-].[O-][Cl+3]([O-])([O-])[O-] | 0.516 µM (active) | 3.33 µM (inactive) | 0.47 µM (active) | 6.1 µM (inactive) | 1.48 µM (inactive) | 11 µM (inactive) | 0.735 µM (active) | 2.07 µM (inactive) | 1.64 µM (inactive) | 0.491 µM (active) | 7.5 µM (inactive) | 0.486 µM (active) | 3.81 µM | 5.27 µM (inactive) | 1.63 µM (inactive) | 0.512 µM (active) | 0.238 µM (active) | 0.265 µM (active) | 2.33 µM (inactive) | –
